Data published in ChEMBL document CHEMBL3785051, “Recent progress on third generation covalent EGFR inhibitors” (Bioorg Med Chem Lett, 2016).

Key:
[1] = Half life in mouse at 25 mg/kg, po; format: ADME, organism-based; details: in vivo
[2] = Apparent half life in patient with EGFR TKI-resistant NSCLC at 20 to 240 mg, po qd; format: ADME, organism-based; details: human, in vivo, read-out: t1/2(app) (converted)
[3] = Clearance in patient with EGFR TKI-resistant NSCLC at 20 to 240 mg, po qd; format: ADME, organism-based; details: human, in vivo
[4] = biological target: Epidermal growth factor receptor (Homo sapiens, UniProt P00533, EX19DEL); assay: Inhibition of EGFR Del ex19 mutant phosphorylation in human PC9 cells preincubated for 2 hrs by ELISA; format: cell-based, PC-9
[5] = biological target: Epidermal growth factor receptor (Homo sapiens, UniProt P00533, L858R/T790M); assay: Inhibition of EGFR T790M/L858R double mutant phosphorylation in human H1975 cells preincubated for 2 hrs by ELISA; format: cell-based
[6] = biological target: Epidermal growth factor receptor (Homo sapiens, UniProt P00533); assay: Inhibition of wild type EGFR phosphorylation in human LoVo cells preincubated for 2 hrs followed by EGF stimulation measured after 30 mins by ELISA; format: cell-based
[7] = Oral bioavailability in Nu/Nu mouse at 20 mg/ kg; format: ADME, organism-based; details: in vivo
A-431 [8] = assay: Antitumor activity against human A431 cells xenografted in NCR Nu/Nu mouse assessed as tumor growth inhibition at 50 mg/kg, ip administered as bid; format: functional; details: A-431, ip, read-out: TGI
NCI-H1975 = assay: Antiproliferative activity against EGFR L858R / T790M double mutant expressing human NCI-H1975 cells assessed as cell viability after 72 hrs by CellTiterGlo analysis; format: functional; details: NCI-H1975, 72 h
[9] = Antiproliferative activity against EGFR Del 19 mutant expressing human HCC827 cells assessed as cell viability after 72 hrs by CellTiterGlo analysis; format: functional; details: HCC827, 72 h
[10] = Antiproliferative activity against EGFR Del ex19/T790M mutant expressing human HCC827EPR cells assessed as cell viability after 72 hrs by CellTiterGlo analysis; format: functional
[11] = Antiproliferative activity against EGFR Del ex19 mutant expressing human PC9 cells assessed as cell viability after 72 hrs by CellTiterGlo analysis; format: functional; details: PC-9, 72 h
A-431 [12] = assay: Antiproliferative activity against wild type EGFR expressing human A431 cells assessed as cell viability after 72 hrs by CellTiterGlo analysis; format: functional; details: A-431, 72 h

Epidermal growth factor receptor (Homo sapiens, UniProt P00533, EX19DEL), sequence (P00533 whole entry, looked up, stated change not applied): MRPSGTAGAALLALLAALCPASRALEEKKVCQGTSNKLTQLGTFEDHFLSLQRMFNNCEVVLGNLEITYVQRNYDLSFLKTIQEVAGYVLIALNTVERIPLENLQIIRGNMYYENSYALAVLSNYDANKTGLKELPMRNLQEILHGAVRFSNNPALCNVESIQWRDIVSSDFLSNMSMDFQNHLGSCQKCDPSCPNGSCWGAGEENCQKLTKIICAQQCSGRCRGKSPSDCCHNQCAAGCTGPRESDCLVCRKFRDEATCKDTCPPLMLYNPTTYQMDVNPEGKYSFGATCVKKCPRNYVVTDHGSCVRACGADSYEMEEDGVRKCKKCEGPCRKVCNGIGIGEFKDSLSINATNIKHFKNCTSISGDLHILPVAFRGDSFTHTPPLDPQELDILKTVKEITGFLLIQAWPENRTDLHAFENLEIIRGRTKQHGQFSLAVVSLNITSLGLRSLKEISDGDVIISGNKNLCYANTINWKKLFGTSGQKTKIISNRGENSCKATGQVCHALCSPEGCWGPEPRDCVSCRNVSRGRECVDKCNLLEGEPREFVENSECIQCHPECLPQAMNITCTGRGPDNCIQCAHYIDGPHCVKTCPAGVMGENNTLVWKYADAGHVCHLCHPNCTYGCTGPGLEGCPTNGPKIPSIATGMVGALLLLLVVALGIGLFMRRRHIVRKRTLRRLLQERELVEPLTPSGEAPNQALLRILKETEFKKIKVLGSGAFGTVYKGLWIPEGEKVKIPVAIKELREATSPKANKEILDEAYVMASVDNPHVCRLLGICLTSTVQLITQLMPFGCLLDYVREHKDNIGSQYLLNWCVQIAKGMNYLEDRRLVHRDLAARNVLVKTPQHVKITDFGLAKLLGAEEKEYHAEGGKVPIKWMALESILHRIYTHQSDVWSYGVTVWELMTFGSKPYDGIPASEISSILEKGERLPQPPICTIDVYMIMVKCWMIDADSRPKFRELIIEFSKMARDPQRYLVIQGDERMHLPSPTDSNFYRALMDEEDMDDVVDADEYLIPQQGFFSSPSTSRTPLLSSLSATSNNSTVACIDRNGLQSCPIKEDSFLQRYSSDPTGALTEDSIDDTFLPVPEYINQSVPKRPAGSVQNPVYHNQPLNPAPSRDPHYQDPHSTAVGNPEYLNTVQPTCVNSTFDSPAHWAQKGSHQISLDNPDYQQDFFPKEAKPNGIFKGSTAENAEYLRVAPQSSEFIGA
Epidermal growth factor receptor (Homo sapiens, UniProt P00533), sequence (P00533 whole entry): as the sequence (P00533 whole entry, looked up, stated change not applied) above
Epidermal growth factor receptor (Homo sapiens, UniProt P00533, L858R/T790M), sequence (P00533 25-1210 T790M/L858R limits assumed): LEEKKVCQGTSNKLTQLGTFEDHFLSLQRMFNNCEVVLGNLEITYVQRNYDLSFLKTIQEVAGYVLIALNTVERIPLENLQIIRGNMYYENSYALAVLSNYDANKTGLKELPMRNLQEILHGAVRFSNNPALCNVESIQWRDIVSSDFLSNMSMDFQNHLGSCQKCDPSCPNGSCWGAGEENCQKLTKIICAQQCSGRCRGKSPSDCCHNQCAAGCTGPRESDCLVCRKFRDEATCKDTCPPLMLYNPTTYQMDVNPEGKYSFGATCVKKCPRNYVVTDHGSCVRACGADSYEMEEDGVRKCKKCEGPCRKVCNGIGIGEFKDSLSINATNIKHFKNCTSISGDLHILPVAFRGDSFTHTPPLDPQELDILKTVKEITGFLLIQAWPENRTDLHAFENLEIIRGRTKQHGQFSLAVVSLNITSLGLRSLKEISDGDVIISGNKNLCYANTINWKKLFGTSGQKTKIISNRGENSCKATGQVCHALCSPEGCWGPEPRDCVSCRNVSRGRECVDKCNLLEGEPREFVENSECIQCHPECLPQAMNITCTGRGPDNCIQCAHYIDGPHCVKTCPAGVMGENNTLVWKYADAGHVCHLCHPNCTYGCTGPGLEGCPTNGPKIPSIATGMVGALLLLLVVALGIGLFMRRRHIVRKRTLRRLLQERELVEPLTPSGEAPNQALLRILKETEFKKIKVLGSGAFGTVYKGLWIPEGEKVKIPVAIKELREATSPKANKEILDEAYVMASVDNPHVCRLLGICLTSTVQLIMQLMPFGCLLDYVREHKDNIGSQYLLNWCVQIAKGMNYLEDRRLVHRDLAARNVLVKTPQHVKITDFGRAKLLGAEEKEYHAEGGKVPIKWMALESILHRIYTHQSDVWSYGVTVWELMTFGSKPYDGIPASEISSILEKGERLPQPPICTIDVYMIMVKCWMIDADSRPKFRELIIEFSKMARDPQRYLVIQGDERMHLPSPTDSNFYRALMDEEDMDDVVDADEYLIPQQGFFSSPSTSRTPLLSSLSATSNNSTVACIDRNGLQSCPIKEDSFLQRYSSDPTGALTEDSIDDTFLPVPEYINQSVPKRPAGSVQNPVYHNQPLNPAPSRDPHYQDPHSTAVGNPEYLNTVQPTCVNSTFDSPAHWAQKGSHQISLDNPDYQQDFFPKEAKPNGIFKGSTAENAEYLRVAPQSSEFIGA

C=CC(=O)Nc1cc(Nc2nccc(-c3cn(C)c4ccccc34)n2)c(OC)cc1N(C)CCN(C)C [OSIMERTINIB]
half-life [1]: 3 h
half-life [2]: 55 h
CL/F [3]: 237 mL/min

C=CC(=O)Nc1cc(Nc2nccc(-c3cn(C)c4ccccc34)n2)c(OC)cc1N(C)CCNC
IC50 [4]: 26 nM
IC50 [5]: 45 nM
IC50 [6]: 786 nM

C=CC(=O)Nc1cc(Nc2nccc(-c3c[nH]c4ccccc34)n2)c(OC)cc1N(C)CCN(C)C
IC50 [4]: 2 nM
IC50 [5]: 2 nM
IC50 [6]: 33 nM

C=CC(=O)Nc1cccc(Nc2nc(Nc3ccc(N4CCN(C(C)=O)CC4)cc3OC)ncc2C(F)(F)F)c1 [ROCILETINIB]
bioavailability [7]: 65%
inhibition in vivo at 50 mg/kg (A-431 [8]): 36%
GI50 (NCI-H1975): 7 nM
GI50 [9]: 7 nM
GI50 [10]: 7 nM
GI50 [11]: 7 nM
GI50 (A-431 [12]): 547 nM
